Earlier results as cited in US20090098202A1, “Extended Release Formulation” (BOEHRINGER INGELHEIM INTERNATIONAL GMBH, priority 2006, published 2009).
Counter-ions that a name gives are not always drawn.

Tests used:
[1] = in the elderly
[2] = not given; remark: listed apart in the source

SMILES | solubility in buffer media (between pH 2 and pH 7.4) | Water solubility (water) | elimination half-life (t1/2[h]) [1] [h] | stability in solution ([2]; in solution, light) | stability in the solid state ([2]; solid state)
CCCN[C@H]1CCc2nc(N)sc2C1 [Pramipexole dihydrochloride monohydrate, pramipexole dihydrochloride monohydrate] | above 10 mg/ml | more than 20 mg/ml |  |  | 
CCCN[C@H]1CCc2nc(N)sc2C1 [Pramipexole, (S)-2-Amino-4,5,6,7-tetrahydro-6-(propylamino)benzothiazole] |  |  | 12 | light sensitive | very stable
